The record followed here is the METLIN SMRT retention time set (Domingo-Almenara et al. 2019).

The series can be described thus: gradient 5% acetonitrile 3 min, to 50% in 2 min, to 85% in 15 min, held 3 min, 100 µL/min. Particulars: column: Zorbax Extend-C18 2.1 x 50 mm; eluents: water / acetonitrile, 0.1% formic acid. The essentials:
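A Zorbax Extend-C18 column (2.1 × 50 mm, 1.8 μm) run at 100 μL/min with water and acetonitrile, both containing 0.1% formic acid, separated mixtures of ~100 pure standards. The HPLC was coupled to a quadrupole time-of-flight mass spectrometer operated in positive and negative ionization mode, with dead and dwell volumes of 40 μL and 900 μL. Each retention time was taken from a computationally picked adduct peak that was then manually inspected.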
`Cc1cc(C)cc(NC(=O)N2CCC(n3cnc4ccc(Cl)cc4c3=O)CC2)c1`: the RP-LC retention time came out at 817 s.
Under `COCc1nncn1C1CCN(C(=O)c2cc(F)ccc2Cl)CC1` stands 635 s; under `Cn1nc(-c2nc(C3CC3)no2)c2c1CCN(S(=O)(=O)c1cccc(Cl)c1)C2`, 1000 s.
Under `Cc1ccc(NS(=O)(=O)c2cc(-c3[nH]ncc3C(=O)N3CCCC3)oc2C)c(C)c1` stands 746 s; under `CCCCN(CC)S(=O)(=O)c1ccc(C(=O)Nc2nc3c(s2)Cc2ccccc2-3)cc1`, 1230 s.
The same measure for `CC(/C=C1\SC(=S)N(CC(=O)O)C1=O)=C\c1ccccc1`: 1150 s; for `COc1cc(Cl)c(C)cc1Nc1c(C(=O)N2CCC(C)CC2)cnc2nc(C)ccc12`: 706 s; for `O=C(CCc1c(-c2ccc(Cl)cc2)nc2ccccn12)NCc1ccccn1`: 571 s.
Turning to `COc1cc2c(cc1OC)C(C(=O)Nc1ccc3c(c1)OCO3)C(c1cccs1)N(C)C2=O` (centres undefined), the RP-LC retention time came to 790 s.
Under `O=C(NCc1ccc(F)cc1F)c1ccc(Cn2c(C(F)(F)F)nc3cccnc32)cc1` stands 925 s.
Under `Cn1c(=O)sc2cc(S(=O)(=O)N3CCC(C(=O)NC4CCCCCC4)CC3)ccc21` stands 896 s; under `CC1CCCN(CC2CCN(S(=O)(=O)c3cc(F)cc(F)c3)CC2)C1` (centres undefined), 681 s.
The compound `OC[C@@H]1CN(C2CCSCC2)C[C@H]1c1nc(-c2cccnc2)no1` registered an RP-LC retention time of 555 s.
`CN1CCN(CCNC(=O)C2c3ccccc3C(=O)N(C3CCCC3)C2c2cccs2)CC1` (centres undefined) gave an RP-LC retention time of 633 s.
The same measure for `CN(C(=O)Cc1ccccc1)[C@H](CN1CCCC1)c1ccccc1`: 726 s; for `Cc1cccc(-c2noc(Cc3nnc(-c4cc(C)cc(C)c4)o3)n2)c1`: 842 s; for `CS(=O)(=O)N(C1CCOCC1)C1CN(C(=O)c2cc(F)ccc2F)C1`: 687 s.
The same measure for `Cc1ccc(NC(=O)c2cccn2Cc2noc(C)n2)cc1`: 856 s; for `O=C(CSc1ncnc2nc[nH]c12)Nc1ccccc1C(F)(F)F`: 618 s.
Under `O=C(Nc1ccc(Br)cc1F)C1CCCN(c2nc3ccccc3nc2C(F)(F)F)C1` (centres undefined) stands 1360 s; under `CCCCCCCNC(=O)C1CCCN(c2ncc(-c3ccccc3)cn2)C1` (centres undefined), 1260 s.
Compound `O=C1c2ccccc2C(=O)c2[nH]cnc21` had an RP-LC retention time of 661 s.
Under `COc1ccc(C(=O)N2CCC(COc3ccc(C(=O)NC(C)C)cc3)CC2)cc1F` stands 834 s; under `CC(=O)NS(=O)(=O)c1ccc(NC(=O)NC2CC(=O)N(c3ccc(C)cc3)C2)cc1` (centres undefined), 651 s.
`O=C(CCC1CCCN(S(=O)(=O)c2ccccc2F)C1)NCCN1CCOCC1` (centres undefined) registered an RP-LC retention time of 642 s.
`Cc1[nH]c(C(=O)N2CCC(CC(=O)NCc3cccc(Cl)c3)CC2)c(C)c1C(=O)OC(C)C` returned an RP-LC retention time of 868 s.
Under `CCn1c(C2CCN(S(=O)(=O)c3ccc(C(C)C)cc3)C2)nc2cccnc21` (centres undefined) stands 906 s; under `CCc1ccc(NC(=O)N2CCCC(C)(C(=O)NCc3ccc(C)cc3)C2)cc1` (centres undefined), 1040 s.
Under `CCn1nc(C)c(CCN(C)C(=O)Nc2cccc(C(=O)OC)c2)c1C` stands 644 s; under `COc1ccc(-c2nc(C3CC(=O)N(c4ccc(F)cc4)C3)no2)c(OC)c1` (centres undefined), 898 s; under `COc1ccc(C(=O)N2CCCC2c2cc(C)on2)cc1OC` (centres undefined), 655 s.
With `O=C(CNC(=O)Cc1ccccc1)NCc1[nH]nc2ccccc12`, the RP-LC retention time was 648 s.
The compound `Cc1nc(N2CCN(C)CC2)cc(N2CCN(C(=O)c3ccc(Br)o3)CC2)n1` returned an RP-LC retention time of 570 s.
`CNC(=O)c1cnn(-c2ccc(-c3nc(C(C)C)no3)cn2)c1C` had an RP-LC retention time of 780 s.
The same measure for `Cc1ccc(-c2noc(-c3ccc(NC(=O)c4ccc(Br)o4)cc3)n2)cc1`: 1290 s.
The compound `CCC(CC)COC(=O)c1[nH]c2c(c1C)C(=O)CC(c1ccc(OC)c(OC)c1)C2` (centres undefined) registered an RP-LC retention time of 1140 s.
The same measure for `Cc1ccccc1-c1nnc(CSc2nnc(NC(=O)c3ccc(C(F)(F)F)cc3)s2)o1`: 1050 s; for `Cc1ccc(-c2noc(-c3cccc(S(=O)(=O)N4CCCC4)c3)n2)cc1`: 1280 s; for `CCCNC(=O)CCC1CCN(S(=O)(=O)c2ccccc2)CC1`: 784 s.
In turn, `O=C(Nc1cccs1)N1CC(c2nc(C3CC3)no2)C1` yielded an RP-LC retention time of 681 s.
`CCCC(=O)Nc1ccc2c(c1)CC(C(=O)NCC(=O)OC)CO2` (centres undefined) had an RP-LC retention time of 650 s.
Under `CCS(=O)(=O)Nc1ccc(C2(C(=O)NCC3CCCO3)CCCCC2)cc1` (centres undefined) stands 781 s.
Compound `COc1ccc(-c2noc(-c3nnn4c3COC(c3ccc(C)cc3C)C4)n2)cc1OC` (centres undefined) yielded an RP-LC retention time of 1190 s.
Under `Cc1sc2ccn(CC(C)C)c(=O)c2c1C(=O)N(C)Cc1ccccc1` stands 917 s; under `Cc1ccc(Nc2cc(C)n3c(=O)n(Cc4cc(=O)n5ccccc5n4)nc3n2)cc1F`, 942 s; under `COc1cc(Cl)c(CC(=O)c2c[nH]c3ccccc23)cc1OC`, 883 s.
Under `O=C(NC1CCCCCCC1)c1nnc(-c2ccc(S(=O)(=O)N3CCCC3)cc2)o1` stands 1070 s; under `Cc1ccccc1OCC(=O)Nc1ccc2c(c1)Sc1ncccc1C(=O)N2C(C)C`, 972 s.
Compound `CSc1cccc(NC(=O)Cn2ncc3c(c2=O)N(CC2CC2)C(=O)CS3)c1` registered an RP-LC retention time of 1190 s.
Under `Cc1ccc(-c2nc3cnccn3c2Nc2ccc(Br)cc2)cc1` stands 1030 s.
Consider `Cc1cccc(S(=O)(=O)N(C)CC2CCOCC2)c1`, for which the RP-LC retention time came out at 863 s.
Consider `CCN1C(=O)c2cccc3c(NC(=O)c4cccs4)ccc1c23`, for which the RP-LC retention time was 731 s.
The same measure for `CN(C)C(=O)c1ccc2c(c1)nnn2CCNC(=O)Nc1ccccc1`: 626 s.
For the compound `CCN1CCN(c2cc(-c3ccc(F)cc3)c3c(n2)CCCCCC3)CC1`, the RP-LC retention time was 765 s.
`COc1ccc(NC(=O)c2cnc(N3CCN(c4ccccc4F)CC3)nc2N)cc1` came in with an RP-LC retention time of 684 s.
The same measure for `O=C(Nc1ccc2nc3n(c(=O)c2c1)CCCCC3)C(=O)N1CCc2ccccc21`: 889 s; for `CC(C)N1C(=O)c2cccnc2Sc2cc(NC(=O)C3CCOC3)ccc21` (centres undefined): 680 s; for `CCOc1ccc(N2CC(CNS(=O)(=O)c3ccccc3C(F)(F)F)CC2=O)cc1` (centres undefined): 824 s.
For `COc1ccc(OC)c(S(=O)(=O)N2CCC(c3cc(-c4cccc(C)c4)n[nH]3)CC2)c1`, the RP-LC retention time is 960 s.
